Where a name gives a salt, the structure may show the parent alone.
Legend:
estrogen receptor [1] = target: T1, estrogen receptor (Homo sapiens, UniProt P03372); experiment: 2X VIT ERE infection (luciferase) assay; type: cell-based; design: expressed in transfected cells; host or cells: Chinese Hamster Ovary cells (CHO), stably transfected; settings: for Infection Luciferase Activity 1 uM + 17β estradiol: 1 uM compound + 1 nM 17β-estradiol (test for estrogen antagonism); for Infection Luciferase Activity 1 uM: 1 uM compound, percentage of activity as compared to 17β-estradiol
T1 sequence (P03372 1-595): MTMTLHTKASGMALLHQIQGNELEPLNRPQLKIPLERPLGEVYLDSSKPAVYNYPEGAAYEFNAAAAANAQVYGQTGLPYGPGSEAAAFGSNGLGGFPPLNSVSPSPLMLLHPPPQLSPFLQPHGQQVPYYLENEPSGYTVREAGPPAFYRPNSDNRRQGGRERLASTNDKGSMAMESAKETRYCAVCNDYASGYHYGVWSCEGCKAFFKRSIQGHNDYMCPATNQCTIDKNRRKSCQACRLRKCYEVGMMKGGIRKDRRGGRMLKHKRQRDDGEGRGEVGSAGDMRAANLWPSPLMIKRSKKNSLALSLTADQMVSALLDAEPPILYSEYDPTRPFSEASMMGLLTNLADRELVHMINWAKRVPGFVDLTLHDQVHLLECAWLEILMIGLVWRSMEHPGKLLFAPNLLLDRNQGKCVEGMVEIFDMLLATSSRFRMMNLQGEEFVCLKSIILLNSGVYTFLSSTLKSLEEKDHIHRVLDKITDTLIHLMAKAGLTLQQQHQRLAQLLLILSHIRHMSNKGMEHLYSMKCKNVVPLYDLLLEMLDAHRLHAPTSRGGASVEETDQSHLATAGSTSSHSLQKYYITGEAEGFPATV
Method: Method No. 18 2X VIT ERE Infection Assay Cell Maintenance and Treatment
Chinese Hamster Ovary cells (CHO) which had been stably transfected with the human estrogen receptor were maintained in DMEM+10% fetal bovine serum (FBS). 48 h prior to treatment the growth medium was replaced with DMEM lacking phenol red +10% dextran coated charcoal stripped FBS (treatment medium). Cells were plated at a density of 5000 cells/well in 96-well plates containing 200 µL of medium/well.
Reporter DNA (Promega plasmid pGL2 containing two tandem copies of the vitellogenin ERE in front of the minimal thymidine kinase promoter driving the luciferase gene) was combined with the B-galactosidase expression plasmid pCH110 (Pharmacia) and carrier DNA (pTZ18U) in the following ratio:
20 uL of this mixture was added to each well of cells and remained on the cells for 16 h. […] Each treatment condition was performed on 8 wells (n=8) which were incubated for 24 h prior to the luciferase assay.
After removing the PBS, 25 uL of Promega lysis buffer was added to each well and allowed to stand at room temperature for 15 min, followed by 15 min at −80° C. and 15 min at 37° C. 20 uL of lysate was transferred to an opaque 96 well plate for luciferase activity evaluation and the remaining lysate (5 uL) was used for the B-galactosidase activity evaluation (normalize transfection). The luciferan substrate (Promega) was added in 100 uL aliquots to each well automatically by the luminometer and the light produced (relative light units) was read 10 seconds after addition.
To the remaining 5 uL of lysate 45 uL of PBS was added. Then 50 uL of Promega B-galactosidase 2× assay buffer was added, mixed well and incubated at 37° C. for 1 hour. A plate containing a standard curve (0.1 to 1.5 milliunits in triplicate) was set up for each experimental run. The plates were analyzed on a Molecular Devices spectrophotometric plate reader at 410 nm. The optical densities for the unknown were converted to milliunits of activity by mathematical extrapolation from the standard curve.
The luciferase data was generated as relative light units (RLUs) accumulated during a 10 second measurement and automatically transferred to a JMP (SAS Inc) file where background RLUs were subtracted. The B-galactosidase values were automatically imported into the file and these values were divided into the RLUs to normalize the data. The mean and standard deviations were determined from a n=8 for each treatment. […] These techniques are described by Tzukerman, M. T., Esty, A., Santiso-Mere, D., Danielian, P., Parker, M. G., Stein, R. B., Pike, J. W. and McDonnel, D. P. (1994).

estrogen receptor [2] = target: T1, estrogen receptor; experiment: In vitro estrogen receptor binding assay ([3H]-17β-estradiol competition); design: expressed in transfected cells; host or cells: CHO cells (100,000 g cytosol); settings: read-out: Receptor Binding IC50's
Method: In Vitro Estrogen Receptor Binding Assay
CHO cells overexpressing the estrogen receptor were grown in 150 mm^2 dishes in DMEM+10% dextran coated charcoal, stripped fetal bovine serum. The plates were washed twice with PBS and once with 10 mM Tris-HCl, pH 7.4, 1 mM EDTA. Cells were harvested by scraping the surface and then the cell suspension was placed on ice. Cells were disrupted with a hand-held motorized tissue grinder using two, 10-second bursts. […] The cytosol was then frozen and stored at −80° C. Protein concentration of the cytosol was estimated using the BCA assay with reference standard protein.
100 uG/100 uL of the receptor preparation was aliquoted per well. […] The plate was incubated at room temperature for 2.5 h. […] 200 uL of the supernatant solution was then removed for scintillation counting. Samples were counted to 2% or 10 minutes, whichever occurs first. […] Also, wells containing radioactivity but no cytosol were processed with charcoal to estimate unremovable DPM of [^3H]
Counts per minute (CPM) of radioactivity were automatically converted to disintegrated per minute (DPM) by the Beckman LS 7500 Scintillation Counter using a set of quenched standards to generate a H No. for each sample.
For the generation of IC50 curves, % binding is plotted vs compound. […] For a description of these methods, see Hulme, E. C., ed. […] Receptor-Ligand Interactions: A Practical Approach. IRL Press, New York. (see especially chapter 8).

Structure (SMILES) | Infection Luciferase Activity 1 uM + 17β estradiol (estrogen receptor [1]) [%] | Infection Luciferase Activity 1 uM (estrogen receptor [1]) [%] | IC50 (estrogen receptor [2]) [nM]
COc1ccc(-c2c(C)c3cc(OC)ccc3n2Cc2ccc(OCCN3CCCCC3)cc2)cc1 [compound 90, 5-Methoxy-2-(4-methoxy-phenyl)-3-methyl-1-[4-(2-piperidin-1-yl-ethoxy)-benzyl]-1H-indole] | 58 | 3 | 
COc1cccc(-c2c(C)c3cc(O)ccc3n2Cc2ccc(OCCN3CCCCC3)cc2)c1 [compound 131, 2-(3-Methoxy-phenyl)-3-methyl-1-[4-(2-piperidin-1-yl-ethoxy)-benzyl]-1H-indole-5-ol] |  |  | 120
Cc1c(-c2ccc(O)cc2)n(Cc2ccc(OCCN3CCCCC3)cc2)c2ccccc12 [compound 86, 4-{3-Methyl-1-[4-(2-piperidin-1-yl-ethoxy)-benzyl]-1H-indol-2-yl}-phenol hydrochloride] | 2 | −5 | 
CCOc1ccc(-c2c(C)c3cc(O)ccc3n2Cc2ccc(OCCN3CCCCCC3)cc2)cc1 [compound 93, 1-[4-(2-Azepan-1-yl-ethoxy)-benzyl]-2-(4-ethoxy-phenyl)-3-methyl-1H-indol-5-ol] | −2 | −3 | 
Cc1c(-c2ccc(O)c(F)c2)n(Cc2ccc(OCCN3CCCCCC3)cc2)c2ccc(O)cc12 [compound 130, 2-(3-Fluoro-4-hydroxy-phenyl)-3-methyl-1-[4-(azepan-1-yl-ethoxy)-benzyl]-1H-indol-5-ol] |  |  | 13
Cc1c(-c2cccc(O)c2)n(Cc2ccc(OCCN3CCCCC3)cc2)c2ccc(O)cc12 [compound 127, 2-(3-Hydroxy-phenyl)-3-methyl-1-[4-(2-piperidin-1-yl-ethoxy)-benzyl]-1H-indol-5-ol] |  |  | 19
Cc1c(-c2ccc(F)cc2)n(Cc2ccc(OCCN3CCCCCC3)cc2)c2ccc(O)cc12 [compound 117, 1-[4-(2-Azepan-1-yl-ethoxy)-benzyl]-2-(4-fluoro-phenyl)-3-methyl-1H-indol-5-ol] | 1 | 0 | 
Cc1c(-c2ccc(O)cc2)n(Cc2ccc(OCCN3CCCC3)cc2)c2ccc(O)cc12 [compound 96, 2-(4-Hydroxy-phenyl)-3-methyl-1-[4-(2-pyrollidin-1-yl-ethoxy)-benzyl]-1H-indol-5-ol] | 8 | 12 | 
Cc1c(-c2ccc(F)cc2)n(Cc2ccc(OCCN3CCCCC3)cc2)c2ccc(O)cc12 [compound 116, 2-(4-Fluoro-phenyl)-3-methyl-1-[4-(2-piperidine-1-yl-ethoxy)-benzyl]-1H-indol-5-ol] | 1 | −1 | 
COc1ccc(-c2c(C)c3cc(O)ccc3n2Cc2ccc(OCCN3CCCCC3)cc2)cc1 [compound 89, 2-(4-methoxy-phenyl)-3-methyl-1-{4-[2-(piperidin-1-yl)-ethoxy]-benzyl}-1H-indol-5-ol] | 18 | 16 | 
Cc1c(-c2ccc3c(c2)OCO3)n(Cc2ccc(OCCN3CCCCC3)cc2)c2ccc(O)cc12 [compound 119, 2-Benzo[1,3]dioxol-5-yl-3-methyl-1-[4-(2-piperidin-1-yl-ethoxy)-benzyl]-1H-indol-5-ol] | −1 | −1 | 
COc1ccc(-c2c(C)c3cc(O)ccc3n2Cc2ccc(OCCN3CCCCC3)cc2)c(OC)c1 [compound 126, 2-(2,4-Dimethoxy-phenyl)-3-methyl-1-[4-(2-piperidin-1-yl-ethoxy)-benzyl]-1H-indol-5-ol] | 0 | −1 | 
Cc1c(-c2ccc(O)cc2)n(Cc2ccc(OCCCN3CCCCC3)cc2)c2ccc(O)cc12 [Example No. 166, 2-(4-Hydroxy-phenyl)-3-methyl-1-{4-[3-(piperidin-1-yl)-propoxy]-benzyl}-1H-indol-5-ol] |  |  | 99
CCOc1ccc(-c2c(C)c3cc(O)ccc3n2Cc2ccc(OCCN3CCCCC3)cc2)cc1 [compound 92, 2-(4-Ethoxy-phenyl)-3-methyl-1-[4-(2-piperidin-1-yl-ethoxy)-benzyl]-1H-indol-5-ol] | −2 | −4 | 
CCc1c(-c2ccc(O)cc2)n(Cc2ccc(OCCN3CCCCC3)cc2)c2ccc(O)cc12 [compound 137, 2-(4-Hydroxy-phenyl)-3-ethyl-1-[4-(2-piperidin-1-yl-ethoxy)-benzyl]-1H-indol-5-ol] |  |  | 150
Cc1c(-c2ccc(O)c(F)c2)n(Cc2ccc(OCCN3CCCCC3)cc2)c2ccc(O)cc12 [compound 129, 2-(3-Fluoro-4-hydroxy-phenyl)-3-methyl-1-[4-(2-piperidin-1-yl-ethoxy)-benzyl]-1H-indol-5-ol] |  |  | 5.5
COc1ccc2c(c1)c(C)c(-c1ccc(O)cc1)n2Cc1ccc(OCCN2CCCCC2)cc1 [compound 88, 4-{5-Methoxy-3-methyl-1-{4-[2-(piperidin-1-yl)-ethoxy]-benzyl}-1H-indol-2-yl}-phenol] | 44 | 4 | 
CCCCN(C)CCOc1ccc(Cn2c(-c3ccc(O)cc3)c(C)c3cc(O)ccc32)cc1 [compound 105, 1-{4-[2-(Butyl-methyl-amino)-ethoxy]-benzyl}-2-(4-hydroxy-phenyl)-3-methyl-1H-indol-5-ol] |  |  | 28
N#Cc1c(-c2ccc(O)cc2)n(Cc2ccc(OCCN3CCCCC3)cc2)c2ccc(O)cc12 [compound 138, 5-Hydroxy-2-(4-Hydroxy-phenyl)-1-[4-(2-piperidin-1-yl-ethoxy)-benzyl]-1H-indole-3-carbonitrile] |  |  | 11
Cc1c(-c2ccc(C(F)(F)F)cc2)n(Cc2ccc(OCCN3CCCCC3)cc2)c2ccc(O)cc12 [compound 123, 3-Methyl-1-[4-(2-piperidin-1-yl-ethoxy)-benzyl]-2-(4-trifluoromethyl-phenyl)-1H-indol-5-ol] |  |  | 170
Cc1c(-c2ccc(O)cc2)n(Cc2ccc(OCCN3CCCCC3)cc2)c2ccc(F)cc12 [compound 94, 4-{5-Fluoro-3-methyl-1-[4-(2-piperidin-1-yl-ethoxy)-benzyl]-1H-indol-2-yl}-phenol] | 15 | −5 | 

— US7132417B2, “2-phenyl-1-[4-(2-aminoethoxy)-benzyl]-indoles as estrogenic agents” (Wyeth, priority 1996, dated 2006)
